Experiments:
Assay type in all cases: in vivo
[1] = system: barnyardgrass (Echinochloa crus-galli); assay: Test A pre-/postemergence: barnyardgrass
Procedure, shortened: (§1)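 Pre: directed soil spray after planting in loam + sand. Post: same formulation (non-phytotoxic solvent + surfactant) on 1–2-leaf plants, 2–10 cm. Greenhouse ~10 d; visual injury 0–100 vs untreated.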

[2] = system: pigweed (Amaranthus retroflexus); assay: Test A pre-/postemergence: pigweed
Procedure, shortened: as §1

[3] = system: wheat (Triticum aestivum); assay: Test A pre-/postemergence: wheat
Procedure, shortened: as §1

rice (Oryza sativa) = assay: Test B flooded paddy: rice; conditions: Flood; 250 g ai/ha; applied to paddy water at 2-leaf stage; visually evaluated after 13 to 15 days
Procedure, shortened: (§2)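 Visual ratings (0 = no effect, 100 = complete control) versus untreated controls were taken 13–15 days after treatment of greenhouse plants. Treatment was added to paddy water held at 3 cm depth on 2-leaf-stage seedlings.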

[4] = system: sedge, umbrella (small-flower umbrella sedge Cyperus difformis); assay: Test B flooded paddy: sedge, umbrella; conditions: Flood; 250 g ai/ha; applied to paddy water at 2-leaf stage; visually evaluated after 13 to 15 days
Procedure, shortened: as §2

[5] = system: barnyardgrass (Echinochloa crus-galli); assay: Test B flooded paddy: barnyardgrass; conditions: Flood; 250 g ai/ha; applied to paddy water at 2-leaf stage; visually evaluated after 13 to 15 days
Procedure, shortened: as §2

[6] = system: ryegrass, Italian (Italian ryegrass, Lolium multiflorum); assay: Test C pre-/postemergence: ryegrass, Italian
Procedure, shortened: (§3)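 Visual injury scored 0–100 (100 = complete control) against untreated controls after 13–15 greenhouse days. Surfactant-containing solvent formulations applied either to soil after sowing (loam/sand) or over 1- to 4-leaf plants, 2–18 cm tall.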

[7] = system: winter wheat (Triticum aestivum); assay: Test C pre-/postemergence: winter wheat
Procedure, shortened: as §3

[8] = system: lambsquarters (Chenopodium album); assay: Test C pre-/postemergence: lambsquarters
Procedure, shortened: as §3

[9] = system: pigweed (Amaranthus retroflexus); assay: Test C pre-/postemergence: pigweed
Procedure, shortened: as §3

soybean (Glycine max) = assay: Test C pre-/postemergence: soybean
Procedure, shortened: as §3

[10] = Postemergence, 125 g ai/ha, 0 to 100 scale, 0 is no effect, 100 is complete control
[11] = Postemergence, 500 g ai/ha, visual rating on 0 to 100 scale (0 no effect, 100 complete control), approximately ten days
[12] = Preemergence, 125 g ai/ha, 0 to 100 scale (0 no effect, 100 complete control)
[13] = Preemergence, 500 g ai/ha, 0 to 100 scale, 0 is no effect, 100 is complete control
[14] = Postemergence, 31 g ai/ha, scale 0 to 100 (0 no effect, 100 complete control)
[15] = Postemergence, 62 g ai/ha, scale 0 to 100 (0 no effect, 100 complete control)
[16] = Postemergence, 125 g ai/ha, scale 0 to 100, 0 no effect, 100 complete control
[17] = Postemergence, 250 g ai/ha, scale 0 to 100
[18] = Preemergence, 31 g ai/ha, scale of 0 to 100, 0 is no effect, 100 is complete control
[19] = Preemergence, 62 g ai/ha, scale of 0 to 100, 0 is no effect, 100 is complete control
[20] = Preemergence, 125 g ai/ha, scale 0 to 100, 0 no effect, 100 complete control
[21] = Preemergence, 250 g ai/ha, scale 0 to 100, 0 no effect, 100 complete control
[22] = Preemergence, 125 g ai/ha, 0 to 100 scale where 0 is no effect and 100 is complete control
[23] = Preemergence, 500 g ai/ha, 0 to 100 scale (0 no effect, 100 complete control)

FC(F)Oc1nn(-c2ccc(C(F)(F)F)cc2)nc1Cc1ccnc(C(F)(F)F)c1 [Compound 26]
Barnyardgrass plant response rating [1, 10]: 80
Barnyardgrass plant response rating [1, 11]: 90
Plant response rating, Barnyardgrass [1, 12]: 90
Plant response rating, Barnyardgrass [1, 13]: 90
Pigweed plant response rating [2, 10]: 100
Pigweed plant response rating [2, 11]: 100
Plant response rating, Pigweed [2, 12]: 100
Plant response rating, Pigweed [2, 13]: 100
Wheat plant response rating [3, 10]: 60
Wheat plant response rating [3, 11]: 80
Plant response rating, Wheat [3, 12]: 50
Plant response rating, Wheat [3, 13]: 80
Plant response rating, Rice (0 to 100 scale, 0 is no effect, 100 is complete control) (rice (Oryza sativa)): 80
Plant response rating, Sedge, Umbrella (0 to 100 scale, 0 is no effect, 100 is complete control) [4]: 90
Plant response rating, Barnyardgrass (0 to 100 scale, 0 is no effect, 100 is complete control) [5]: 60
Plant response rating, Ryegrass, Italian [6, 14]: 10
Plant response rating, Ryegrass, Italian [6, 15]: 20
Plant response rating, Ryegrass, Italian [6, 16]: 30
Plant response rating, Ryegrass, Italian [6, 17]: 35
Plant response rating, Ryegrass, Italian [6, 18]: 10
Plant response rating, Ryegrass, Italian [6, 19]: 60
Plant response rating, Ryegrass, Italian [6, 20]: 60
Plant response rating, Ryegrass, Italian [6, 21]: 80
Plant response rating, Wheat [7, 14]: 10
Plant response rating, Wheat [7, 15]: 20
Plant response rating, Wheat [7, 16]: 30
Plant response rating, Wheat [7, 17]: 35
Plant response rating, Wheat [7, 18]: 0
Plant response rating, Wheat [7, 19]: 5
Plant response rating, Wheat [7, 20]: 30
Plant response rating, Wheat [7, 21]: 30
Plant response rating, Lambsquarters [8, 14]: 80
Plant response rating, Lambsquarters [8, 15]: 95
Plant response rating, Lambsquarters [8, 16]: 98
Plant response rating, Lambsquarters [8, 17]: 98
Plant response rating, Lambsquarters [8, 18]: 70
Plant response rating, Lambsquarters [8, 19]: 98
Plant response rating, Lambsquarters [8, 20]: 98
Plant response rating, Lambsquarters [8, 21]: 100
Plant response rating, Pigweed [9, 15]: 60
Plant response rating, Pigweed [9, 16]: 80
Plant response rating, Pigweed [9, 17]: 98
Plant response rating, Pigweed [9, 18]: 100
Plant response rating, Pigweed [9, 19]: 100
Plant response rating, Pigweed [9, 20]: 100
Plant response rating, Pigweed [9, 21]: 100
Plant response rating, Soybean (soybean (Glycine max); [14]): 35
Plant response rating, Soybean (soybean (Glycine max); [15]): 40
Plant response rating, Soybean (soybean (Glycine max); [16]): 50
Plant response rating, Soybean (soybean (Glycine max); [17]): 55
Plant response rating, Soybean (soybean (Glycine max); [18]): 0
Plant response rating, Soybean (soybean (Glycine max); [19]): 5
Plant response rating, Soybean (soybean (Glycine max); [20]): 5
Plant response rating, Soybean (soybean (Glycine max); [21]): 15

CCc1nn(-c2ccc(C(F)(F)F)cc2)nc1Cc1ccnc(C(F)(F)F)c1 [Compound 155]
Plant response rating, Barnyardgrass [1, 10]: 90
Barnyardgrass plant response rating [1, 11]: 90
Plant response rating, Barnyardgrass [1, 22]: 100
Plant response rating, Barnyardgrass [1, 23]: 100
Plant response rating, Pigweed [2, 10]: 100
Pigweed plant response rating [2, 11]: 100
Plant response rating, Pigweed [2, 22]: 100
Plant response rating, Pigweed [2, 23]: 100
Plant response rating, Wheat [3, 10]: 40
Wheat plant response rating [3, 11]: 80
Plant response rating, Wheat [3, 22]: 10
Plant response rating, Wheat [3, 23]: 70
Plant response rating, Rice (0 to 100 scale, 0 is no effect, 100 is complete control) (rice (Oryza sativa)): 50
Plant response rating, Sedge, Umbrella (0 to 100 scale, 0 is no effect, 100 is complete control) [4]: 80
Plant response rating, Barnyardgrass (0 to 100 scale, 0 is no effect, 100 is complete control) [5]: 75
Plant response rating, Ryegrass, Italian [6, 14]: 35
Plant response rating, Ryegrass, Italian [6, 15]: 45
Plant response rating, Ryegrass, Italian [6, 16]: 65
Plant response rating, Ryegrass, Italian [6, 17]: 70
Plant response rating, Ryegrass, Italian [6, 18]: 35
Plant response rating, Ryegrass, Italian [6, 19]: 85
Plant response rating, Ryegrass, Italian [6, 20]: 85
Plant response rating, Ryegrass, Italian [6, 21]: 90
Plant response rating, Wheat [7, 14]: 15
Plant response rating, Wheat [7, 15]: 30
Plant response rating, Wheat [7, 16]: 35
Plant response rating, Wheat [7, 17]: 40
Plant response rating, Wheat [7, 19]: 5
Plant response rating, Wheat [7, 20]: 10
Plant response rating, Wheat [7, 21]: 35
Plant response rating, Lambsquarters [8, 14]: 80
Plant response rating, Lambsquarters [8, 15]: 95
Plant response rating, Lambsquarters [8, 16]: 98
Plant response rating, Lambsquarters [8, 17]: 98
Plant response rating, Lambsquarters [8, 18]: 90
Plant response rating, Lambsquarters [8, 19]: 100
Plant response rating, Lambsquarters [8, 20]: 100
Plant response rating, Lambsquarters [8, 21]: 100
Plant response rating, Pigweed [9, 14]: 90
Plant response rating, Pigweed [9, 15]: 90
Plant response rating, Pigweed [9, 16]: 98
Plant response rating, Pigweed [9, 17]: 100
Plant response rating, Pigweed [9, 18]: 100
Plant response rating, Pigweed [9, 19]: 100
Plant response rating, Pigweed [9, 20]: 100
Plant response rating, Pigweed [9, 21]: 100
Plant response rating, Soybean (soybean (Glycine max); [14]): 50
Plant response rating, Soybean (soybean (Glycine max); [15]): 75
Plant response rating, Soybean (soybean (Glycine max); [16]): 80
Plant response rating, Soybean (soybean (Glycine max); [17]): 80
Plant response rating, Soybean (soybean (Glycine max); [18]): 0
Plant response rating, Soybean (soybean (Glycine max); [19]): 35
Plant response rating, Soybean (soybean (Glycine max); [20]): 35
Plant response rating, Soybean (soybean (Glycine max); [21]): 40
